Like-named read-outs stand apart in the source and are kept apart here. Marks after values point to notes of the source that are not given here.
Legend:
Assay type in all cases: in vivo
[1] = test system: Plasmopara viticola (the causal agent of grape downy mildew); test: Test A: grape downy mildew, grape seedlings inoculated then sprayed with test suspension, visual disease rating; details: 100 = 100% disease control, 0 = no control relative to controls
Description: General protocol for preparing test suspensions for Tests A-B2: The test compounds were first dissolved in acetone in an amount equal to 3% of the final volume and then suspended at the desired concentration (in ppm) in acetone and purified water (50/50 mix by volume) containing 250 ppm of the surfactant Trem® 014 (polyhydric alcohol esters). The resulting test suspensions were then used in Tests A-B2. Spraying a 200 ppm test suspension to the point of run-off on the test plants was the equivalent of a rate of 800 g/ha.
Grape seedlings were inoculated with a spore suspension of Plasmopara viticola (the causal agent of grape downy mildew) and incubated in a saturated atmosphere at 20° C. for 24 h. After a short drying period, the grape seedlings were sprayed with the test suspension to the point of run-off, then moved to a growth chamber at 20° C. for 5 days, and then back into a saturated atmosphere at 20° C. for 24 h. Upon removal, visual disease ratings were made.
Results for Tests A-B2 are given in Table A. In the Table, a rating of 100 indicates 100% disease control and a rating of 0 indicates no disease control (relative to the controls). All results are for 10 ppm except where followed by an “*” which indicates 40 ppm and “**” which indicates 200 ppm.

[2] = test system: Phytophthora infestans (the causal agent of tomato late blight); details: sprayed the day before inoculation, 100 = 100% disease control, 0 = no control
[3] = test system: Phytophthora infestans (the causal agent of tomato late blight); details: sprayed 17 h after inoculation, 100 = 100% disease control, 0 = no control

## CC(C)=NOCC(=O)N1CCC(c2nc(C(=O)N(C)[C@H](C)c3ccccc3)cs2)CC1 [compound 15]
[1]; test suspension 40 ppm (*)
  Test A rating (disease control): 99* %
[2]; test suspension 40 ppm (*)
  Test B1 rating (disease control): 39* %
[3]; test suspension 40 ppm (*)
  Test B2 rating (disease control): 91* %

## O=C(CON=CC(F)(F)F)N1CCC(c2nc(C3=NOC4(CCc5ccccc54)C3)cs2)CC1 (stereo not drawn) [compound 29]
[1]; test suspension 10 ppm
  Test A rating (disease control): 100%
[2]; test suspension 10 ppm
  Test B1 rating (disease control): 100%
[3]; test suspension 10 ppm
  Test B2 rating (disease control): 99%

## CC(C)=NOCC(=O)N1CCC(c2nc(C3=NOC(c4ccccc4C#N)C3)cs2)CC1 (stereo not drawn) [compound 41]
[1]; test suspension 10 ppm
  Test A rating (disease control): 100%
[2]; test suspension 10 ppm
  Test B1 rating (disease control): 100%
[3]; test suspension 10 ppm
  Test B2 rating (disease control): 99%

## CC(=NOCC(=O)N1CCC(c2nc(C3=NOC(c4ccccc4C#N)C3)cs2)CC1)C(F)(F)F (stereo not drawn) [compound 42]
[1]; test suspension 10 ppm
  Test A rating (disease control): 100%
[2]; test suspension 10 ppm
  Test B1 rating (disease control): 100%
[3]; test suspension 10 ppm
  Test B2 rating (disease control): 99%

## CC(=NOCC(=O)N1CCC(c2nc(C3=NOC(n4c(=O)oc5ccccc54)C3)cs2)CC1)C(F)(F)F (stereo not drawn) [compound 43]
[1]; test suspension 10 ppm
  Test A rating (disease control): 100%
[2]; test suspension 10 ppm
  Test B1 rating (disease control): 100%
[3]; test suspension 10 ppm
  Test B2 rating (disease control): 99%

## CC(=NOCC(=O)N1CCC(c2nc(C3=NOC(N4C(=O)c5ccccc5C4=O)C3)cs2)CC1)C(F)(F)F (stereo not drawn) [compound 44]
[1]; test suspension 10 ppm
  Test A rating (disease control): 100%
[2]; test suspension 10 ppm
  Test B1 rating (disease control): 100%
[3]; test suspension 10 ppm
  Test B2 rating (disease control): 99%

## CC(C)=NOCC(=O)N1CCC(c2nc(C3=NOC(N4C(=O)c5ccccc5C4=O)C3)cs2)CC1 (stereo not drawn) [compound 45]
[1]; test suspension 10 ppm
  Test A rating (disease control): 96%
[2]; test suspension 10 ppm
  Test B1 rating (disease control): 95%
[3]; test suspension 10 ppm
  Test B2 rating (disease control): 99%

## CC1=NN(CC(=O)N2CCC(c3nc(C4=NOC(c5c(F)cccc5F)C4)cs3)CC2)C(C)(C)C1 (stereo not drawn) [compound 46]
[1]; test suspension 40 ppm (*)
  Test A rating (disease control): 9* %
[2]; test suspension 40 ppm (*)
  Test B1 rating (disease control): 90* %
[3]; test suspension 40 ppm (*)
  Test B2 rating (disease control): 81* %

## CN1C(=O)c2ccccc2C12CC(c1csc(C3CCN(C(=O)CON=CC(F)(F)F)CC3)n1)=NO2 (stereo not drawn) [compound 47]
[1]; test suspension 10 ppm
  Test A rating (disease control): 100%
[2]; test suspension 10 ppm
  Test B1 rating (disease control): 100%
[3]; test suspension 10 ppm
  Test B2 rating (disease control): 99%

## Cn1c(=O)n(C2CC(c3csc(C4CCN(C(=O)CON=CC(F)(F)F)CC4)n3)=NO2)c2ccccc21 (stereo not drawn) [compound 48]
[1]; test suspension 10 ppm
  Test A rating (disease control): 100%
[2]; test suspension 10 ppm
  Test B1 rating (disease control): 100%
[3]; test suspension 10 ppm
  Test B2 rating (disease control): 99%

## CC(=NOCC(=O)N1CCC(c2nc(C3=NOC(n4c(=O)n(C)c5ccccc54)C3)cs2)CC1)C(F)(F)F (stereo not drawn) [compound 49]
[1]; test suspension 10 ppm
  Test A rating (disease control): 100%
[2]; test suspension 10 ppm
  Test B1 rating (disease control): 100%
[3]; test suspension 10 ppm
  Test B2 rating (disease control): 99%

## CC(=NOCC(=O)N1CCC(c2nc(C3=NOC4(C3)c3ccccc3C(=O)N4C)cs2)CC1)C(F)(F)F (stereo not drawn) [compound 50]
[1]; test suspension 10 ppm
  Test A rating (disease control): 100%
[2]; test suspension 10 ppm
  Test B1 rating (disease control): 100%
[3]; test suspension 10 ppm
  Test B2 rating (disease control): 99%

## N#CC(C#N)=NOCC(=O)N1CCC(c2nc(C3=NOC(c4c(F)cccc4F)C3)cs2)CC1 (stereo not drawn) [compound 51]
[1]; test suspension 10 ppm
  Test A rating (disease control): 99%
[2]; test suspension 10 ppm
  Test B1 rating (disease control): 100%
[3]; test suspension 10 ppm
  Test B2 rating (disease control): 99%
